{"source": "patent US20040167132A1", "about": "“Methods of treating conditions associted with an Edg-2 receptor” (priority 2003, published 2004)", "origin": "cited, not measured here", "key": {"Adrenergic β": {"target": "Adrenergic β", "conditions": "radioligand; Wistar rat brain; historical value"}, "[1]": {"target": "Adrenergic α1 non-selective"}, "[2]": {"target": "Serotonin 5-HT1, non-selective", "conditions": "radioligand; Wistar rat cerebral cortex; historical value"}, "Angiotensin AT2": {"target": "T1, Angiotensin AT2 (Homo sapiens, UniProt P50052)", "T1 construct": "expressed in transfected cells; host or cells: HeLa cells", "T1 sequence (P50052 1-363)": "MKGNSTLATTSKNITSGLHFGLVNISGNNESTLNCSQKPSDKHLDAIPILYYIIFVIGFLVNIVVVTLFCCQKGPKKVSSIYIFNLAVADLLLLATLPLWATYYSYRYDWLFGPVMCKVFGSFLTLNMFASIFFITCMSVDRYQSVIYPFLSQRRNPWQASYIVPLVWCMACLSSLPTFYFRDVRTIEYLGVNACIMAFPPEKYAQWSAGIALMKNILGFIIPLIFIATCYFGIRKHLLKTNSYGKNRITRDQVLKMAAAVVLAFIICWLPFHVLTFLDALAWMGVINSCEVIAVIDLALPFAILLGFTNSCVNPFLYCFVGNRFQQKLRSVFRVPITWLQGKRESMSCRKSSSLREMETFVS", "conditions": "radioligand; Human recombinant Hela cells; historical value"}}, "note": "Structures can show the parent of a compound that is named as a salt.", "data": [{"compound": "CCCc1ccccc1OCC(O)CNC(C)C", "note": "(stereo not shown) [^3H Dihydroaplenolol, Dihydroaplenolol]", "values": [{"measurement": "Kd", "setting": "Adrenergic β", "value": 0.5, "unit": "nM"}]}, {"compound": "COc1cc2nc(N3CCN(C(=O)c4ccco4)CC3)nc(N)c2cc1OC", "note": "[^3H Prazosin, Prazosin]", "values": [{"measurement": "Kd", "setting": "[1]", "value": 0.29, "unit": "nM"}]}, {"compound": "NCCc1c[nH]c2ccc(O)cc12", "note": "[^3H Serotonin (5-HT) Trifluoroacetate, Serotonin (5-HT) Trifluoroacetate]", "values": [{"measurement": "Kd", "setting": "[2]", "value": 0.61, "unit": "nM"}]}, {"compound": "CGP-42112A [^125I CGP-42112A]", "values": [{"measurement": "Kd", "setting": "Angiotensin AT2", "value": 0.012, "unit": "nM"}]}]}
